Source: patent US8283311B2, “Peptide-containing food intake regulator” (Maruha Nichiro Foods, Inc., priority 2008, dated 2012)
Ends that are not written are not given here.

Test system: Male SD rats
Assay: Measurement of food intake after intravenous administration
Format: in vivo
Conditions: test conditions not stated for this peptide
Procedure: Male SD rats (Sprague-Dawley, body weight of 275±25 g) were housed and fed in 45×23×15-cm APECR cages, five rats per cage. The rats were acclimated for 1 week or more on a 12-h light/12-h dark cycle at a room temperature of 22 to 24° C. and a humidity of 60 to 80% with free access to food and water before the test. The rats used for the test were fasted for 12 hours overnight before initiation of the test. After fasting, the samples to be tested as the food intake regulator were dissolved in saline and the dissolved test samples were intravenously given (150 μg/body) to the rats, respectively, in the treatment group and, then, their food intakes were measured 1, 2, 4, and […] administration. In contrast, in the control group, saline was intravenously given and their food intakes were measured in the same way.

Sequence: GRVYRPCWQV [SEQ ID NO: 34]
- food intake regulation activity: no food intake regulation activity
